Results published in patent publication US4098823A, “Monospiroalkyl derivatives of prostaglandins” (Miles Laboratories, Inc., priority 1977, dated 1978).

Columns and labels:
[1] = system: steroidogenesis in the adrenal glands; details: hypophysectomized rats; cited from earlier work
[2] = system: female reproductive system; details: in vivo; cited from earlier work
adrenergic nerve endings = details: guinea pig; cited from earlier work
Gastric Secretion = assay: Effects on Gastric Secretion in the Rat; format: in vivo; details: pylorus-ligated rat, subcutaneous, 2 x 1.5 mg/kg (total 3.0 mg/kg), 4 hours
Method: A procedure based on that described by Lipmann (J. Pharm. Pharmacol., 21:335 [1968]) was used to assess the influence of test compounds on gastric secretion. Rats of one sex weighing 150 to 200 g were randomly divided into groups of six animals each and fasted for 48 hours previously to the experiments, water being available adlibitum. The animals were anesthetized with ether, the abdomen was opened through a midline incision and the pylorus was ligated. Test compounds were diluted from stock solution so as to administer a dose of 1.5 mg/kg in a volume equivalent to 1 ml/kg. Subcutaneous injections were applied immediately after surgery and again 2 hours later, so that a total dose of 3.0 mg/kg was administered. Dilutions were made with phosphate buffer (pH 7.38) as recommended by Lee et al. (Prostaglandins 3:29 [1973]), in order to insure adequate stability of drugs at the subcutaneous depot. Each compound was tested in one group of rats; an additional control group received only the vehicle.
Four hours after pyloric ligation the animals were killed with ether, the cardias ligated and the stomachs removed. The volume of gastric secretion was measured and the contents centrifuged at 500 rpm for 10 minutes. Total acid in the supernatant was titrated against a 0.1 N sodium hydroxide solution and the amount expressed in mEq.
Volume and total acid values of the treated group were compared with those of the controls by the "T" test. Antisecretory activity was scored according to the following scale: […]

Femoral Blood Flow = assay: Effects on Femoral Blood Flow in the Dog; format: in vivo; details: anesthetized mongrel dog, intraarterial, 0.001 to 10 mcg
Method: The peripheral vasodilator or constrictor effects of these compounds were determined in mongrel dogs of either sex, weighing between 10 and 20 kg anesthestized intravenously with 35 mg/kg of sodium pentobarbital. An external iliac artery was dissected immediately above the femoral arch for a length of approximately 5 cm and a previously calibrated, non-connulating electromagnetic flowmeter sensor with a lumen between 2.5 and 3.5 mm was placed snugly around the vessel. Cannulas were placed in a branch of the artery arising distally to the location of the flowmeter sensor for intraarterial drug administrations, in the contralateral femoral artery for systemic blood pressure recordings and in the trachea for artificial respiration with room air. Femoral blood flow and systemic blood pressure were continously recorded with an electromagnetic flowmeter and pressure tranducer, respectively.
After an adequate control period, test compounds were injected intraarterially at one log-spaced doses ranging from 0.001 to 10 mcg., in a volume of 0.5 ml and at 5 to 10 minute intervals. Maximum changes in bloodflow, as well as any variations in blood pressure, were tabulated for each dose in absolute values (ml/min. and mmHg). The calculations were made taking as control values those existing immediately before administration of each dose. The direction of the observed change (plus for increase and minus for decrease) was also noted. The dose changing bloodflow by 100 ml/min (ED100 ml/min) was calculated graphically and was used for scoring activity as follows: […]

[3] = system: Blood Pressure and Heart Rate; assay: Effects on Blood Pressure and Heart Rate in the Anesthetized Cat; format: in vivo; details: Felis catus, intravenous, 0.01 to 10.0 mcg/kg, scored only on hypotension, read-out: Test D Activity Value (ED50 mmHg, decrease in blood pressure);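 note: Anesthetized cats given intravenous doses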
Method: The acute effects of test compounds on blood pressure and heart rate were determined in cats of either sex anesthetized with a mixture of pentobarbital sodium (35 mg/kg, i.v.) and barbital sodium (100 mg/kg, i.v.). Cannulas were placed in the trachea to allow adequate spontaneous ventilation, in a femoral artery for blood pressure recording with a strain gage transducer, and in a saphenous vein for drug administration. Heart rate was recorded by means of a cardiotachometer driven by the R wave of the electrocardiogram. After a period of 10 minutes of stable recordings of blood pressure and heart rate, the test compound was administered intravenously at doses increasing from 0.01 to 10.0 mcg/kg, spaced one log and injected at 10 minutes intervals. All doses were injected in a volume of 0.1 ml/kg. Modifications of blood pressure and heart rate induced by the test compound were expressed both in absolute units (mmHg and beats/minutes) and as percent of values recorded immediately before administration of each dose. Biphasic responses were tabulated in the order in which they occur. The direction of the observed changes was also noted (+ for increases and - for decreases).
Activity of compounds in this test was judged only on the basis of the degree of hypotension observed. Thus, the ED50 mmHg (dose decreasing blood pressure by 50 mmHg) was calculated graphically and the compound scored according to the following scale: […]

rat stomach fundus = assay: Cascade Assay, stomach (smooth muscle stimulant effect); format: cell-based; details: superfused, 50% of maximum (PGE1)
Method: (§1) The smooth muscle stimulant effects of test compounds were determined simultaneously in four different tissues that are known to be reactive to naturally occurring prostaglandins. Segments of rat stomach fundus, rat colon, chick rectum and rabbit aortic strip were obtained as described by: Vane, J. R., Brit. J. Pharmacol., 12: 344 (1957); Regoli, D. and Vane, J. R., Brit. J. Pharmacol., 23: 351 (1964); Mann, M. and West, G. B., Brit. J. Pharmacol., 5: 173 (1950); and Furchgott, R. F. and Bhadrakom, R., J. Pharmacol. Exper. Ther., 108: 129 (1953). One end of each preparation was tied to the bottom of a 10 ml tissue chamber and the other to a force displacement transducer (Grass FT-03) for continuous tension recording. The stomach, colon, and rectum segments were stretched to an initial tension of 1 g, while the aortic strip was subjected to 4 g. All preparations were left undisturbed for 1 hour prior to testing. The chambers were equipped with an external jacket through which water, maintained at 40° C, was circulated. Preparations were arranged one beneath the other in descending order (aorta, stomach, colon and rectum). Provision was made for bathing the four tissues successively so that they were superfused with the same fluid (Gaddum, H. J., Brit. J. Pharmacol., 6: 321 [1953]. The bathing fluid consisted of: Krebs bicarbonate solution aerated with a mixture of 95% O2 and 5% CO2 and warmed at 37° C; atropine sulphate (0.1 mcg/ml), phenoxybenzamine hydrochloride (0.1 mcg/ml), propranolol hydrochloride (3.0 mcg/ml), methysergide maleate (0.2 mcg/ml) and brompheniramine maleate (0.1 mcg/ml) were added to eliminate the possibility of smooth muscle responses being due to stimulation of cholinergic, adrenergic, serotonin or histamine receptors. The fluid was circulated by means of a roller pump and was allowed to drip over the preparations at a rate of 10 ml/minute.
(§2) Test compounds were diluted from stock solutions so as to administer quantities ranging from 0.001 100,000 ng in a volume of 0.5 ml. The compounds were applied by dripping on the uppermost tissue, at intervals of 10 to 20 minutes. Maximal increases in tension after each dose were measured and the results were used to plot dose-response curves. ED50 data (doses necessary to produce a response 50% of maximum) were then calculated graphically for each tissue.
(§3) Activity in each tissue was scored according to the following scale: […]

rat colon = assay: Cascade Assay, colon (smooth muscle stimulant effect); format: cell-based; details: superfused, 50% of maximum (PGF2α)
Method: as §1, §2, §3

chick rectum = assay: Cascade Assay, rectum (smooth muscle stimulant effect); format: cell-based; details: superfused, 50% of maximum (PGE1)
Method: as §1, §2, §3

rabbit aortic strip = assay: Cascade Assay, aorta (smooth muscle stimulant effect); format: cell-based; details: superfused, 50% of maximum (PGA2)
Method: as §1, §2, §3

Rat Uterus = assay: Effects on the Rat Uterus in Vitro; format: cell-based; details: Rattus norvegicus; in vitro, 29° C; response 50% that of carbachol; read-out: Test F Rat Uterus, Activity Value (ED50)
Method: The uterine stimulant effect of test compounds was determined in segments of uterus obtained from rats (140-160 g) pretreated subcutaneously with 1 mg/kg of diethyl-stilbesterol 18 hours before the experiment. The tissues were placed in 10 ml chambers filled with de-Jalon solution at 29° C, were aerated and bubbled with 95% O2 and 5% CO2, and were prepared for isometric recording with force displacement transducers. Preparations were stretched to an initial tension of 1 g and were left undisturbed for 30 minutes. Carbachol (1 mcg/ml) was then added to the bath and a response was recorded. After a 10 minute interval the carbachol procedure was repeated. Responses to increasing concentrations of a test compound (0.001 to 10 mcg/ml with one log intervals) were then recorded every 10 minutes. Preparations were washed four times after each response. All doses of compounds were administered in a 0.1 ml volume. Because it has been observed that the magnitude of the second response to carbachol (approximately 10% greater than the first) is close to the maximal response of the tissue, such value was taken as a measure of the sensitivity of a particular segment. Responses to each concentration of the test compound were expressed in terms of percentage of the second response to carbachol and the ED50 (dose producing a response 50% that of carbachol) was calculated graphically. Activity was scored according to the following scale: […]

[4] = system: Human Platelet Aggregation; assay: Inhibition of Human Platelet Aggregation; format: cell-based; details: in vitro
Method: The ability of test compounds to inhibit platelet aggregation was determined by a modification of the turbidometric technique of Born (Nature, 194:927 [1962]). Blood was collected from human volunteers who had not ingested aspirin or aspirin-containing products within the preceding two weeks in heparinized containers and was allowed to settle for one (1) hour. The platelet rich plasma (prp) supernates were collected and cooled. Siliconized glassware was used throughout.
In a representative assay 1.9 ml of PRP and 0.2 ml of test compound at the appropriate concentrations (0.001 to 100 mcgm), or 0.2 ml of distilled water (control procedure) were placed in sample cuvettes. The cuvettes were placed in a 37° C incubation block for 15 minutes, and then in a spectrophotometer linked to a strip chart recorder. After 30-60 seconds, 0.2 ml of a solution, prepared by diluting a calf-skin collagen solution 1:9 with Tyrodes' Solution, was added to each cuvette. Platelet aggregation was evidenced by a decrease in optical density.
An ED50 value was then determined graphically.

EC50 (Rat Uterus) | Structure (SMILES) | steroidogenesis in the adrenal glands [1] | effect in the female reproductive system (fertility, labor, abortion) [2] | transmitter release from adrenergic nerve endings (adrenergic nerve endings) | Test B Activity Value (% decrease in acidity, inhibition of gastric secretion) (Gastric Secretion) | Test C Activity Value (ED100 ml/min, increase in femoral blood flow) (Femoral Blood Flow) | ED (50 mmHg) [3] | Test E Cascade Assay, Stomach, Activity Value (ED50) (rat stomach fundus) | Test E Cascade Assay, Colon, Activity Value (ED50) (rat colon) | Test E Cascade Assay, Rectum, Activity Value (ED50) (chick rectum) | Test E Cascade Assay, Aorta, Activity Value (ED50) (rabbit aortic strip) | inhibition of aggregation of human platelets, in words [4]
 | CCCCC[C@H](O)/C=C/[C@H]1[C@H](O)CC(=O)[C@@H]1C/C=C\CCCC(=O)O [PGE2] | stimulate steroidogenesis in the adrenal glands | potent oxytocic effects in inducing labor | inhibit transmitter release from adrenergic nerve endings |  |  |  |  |  |  |  | 
> 10 µg/mL | O=C(O)CCCCCC[C@H]1C(=O)CC[C@@H]1/C=C/[C@@H](O)C1CCC2(CCCCC2)CC1 (relative stereo) [TR-4021, dl 7-{5-oxo-2R-[3S-hydroxy-3-(spiro[5.5]undecan-3-yl)-1E-propenyl]cyclopent-1R-yl} heptanoic acid] |  |  |  | 0 (<26) | 0 (>10.0) | > 0.01 mg/kg | 4 (<10) | 0 (>10000) | 0 (>10000) | 0 (>10000) | 
 | CCCCC[C@H](O)/C=C/[C@@H]1[C@@H](CCCCCCC(=O)O)[C@@H](O)C[C@H]1O [PGF1α] | stimulate steroidogenesis in the adrenal glands |  |  |  |  |  |  |  |  |  | 
> 10 µg/mL | COC(=O)CCCCCC[C@@H]1[C@@H](/C=C/[C@@H](O)C2CC3(CCC3)C2)[C@H](O)C[C@@H]1O [TR-4139, Methyl 7-{3R,5S-dihydroxy-2R-[3S-hydroxy-3-(spiro[3.3]hept-2-yl)-1E-propenyl]cyclopent-1R-yl}heptanoate] |  |  |  | 0 (<26) | 0 (>10.0) | > 0.01 mg/kg | 0 (>10000) | 0 (>10000) | 0 (>10000) | 0 (>10000) | 
> 10 µg/mL | COC(=O)CCCCCC[C@H]1C(=O)C[C@@H](O)[C@@H]1/C=C/[C@@H](O)C1(C)CC2(CCC2)C1 [TR-4845, Methyl 7-{3R-hydroxy-5-oxo-2R-[3R-hydroxy-3-(2-methylspiro[3.3]hept-2-yl)-1E-propenyl]cyclopent-1R-yl}heptanoate] |  |  |  | 3 (51-75) |  |  | 0 (>10000) | 0 (>10000) | 0 (>10000) | 0 (>10000) | inhibit aggregation of platelets
